# Source: ChEMBL document CHEMBL1201862, “PubChem BioAssay data set” (2004)
#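 Cultured in 96-well plates, cells were exposed to test compound for 48 hours across five concentrations. The concentration for 50% growth inhibition is given as GI50.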 Activity calls are given as the source filed them. Cut-off read from the data, not from the text of the source: active = GI50 up to about 1.1 µM and inactive = higher.
# Assays:
# Experiment in all cases: NCI tumour cell line growth inhibition, 48 h
# HCT-116 = tested on: HCT-116
# ACHN = tested on: ACHN
# UACC-257 = tested on: UACC-257
# HOP-92 = tested on: HOP-92
# SK-MEL-2 = tested on: SK-MEL-2
# SK-OV-3 = tested on: SK-OV-3
# OVCAR-5 = tested on: OVCAR-5
# UO-31 = tested on: UO-31
# OVCAR-4 = tested on: OVCAR-4
# LOX IMVI = tested on: LOX IMVI
# Malme-3M = tested on: Malme-3M
# 786-0 = tested on: 786-0
# HCC 2998 = tested on: HCC 2998
# NCI-H23 = tested on: NCI-H23
# SF-295 = tested on: SF-295
# NCI-H226 = tested on: NCI-H226
# M14 = tested on: M14
# KM12 = tested on: KM12
# T47D = tested on: T47D
# MOLT-4 = tested on: MOLT-4
Structure (SMILES),GI50 (HCT-116),GI50 (ACHN),GI50 (UACC-257),GI50 (HOP-92),GI50 (SK-MEL-2),GI50 (SK-OV-3),GI50 (OVCAR-5),GI50 (UO-31),GI50 (OVCAR-4),GI50 (LOX IMVI),GI50 (Malme-3M),GI50 (786-0),GI50 (HCC 2998),GI50 (NCI-H23),GI50 (SF-295),GI50 (NCI-H226),GI50 (M14),GI50 (KM12),GI50 (T47D),GI50 (MOLT-4)
Cc1c(-c2ccccc2)c(C#N)c2nnn(C3CCCCC3)c(=O)n12,52.6 µM (inactive),50.5 µM (inactive),> 100 µM (inactive),24 µM (inactive),31.6 µM (inactive),60.3 µM (inactive),94.4 µM (inactive),0.74 µM (active),40.6 µM (inactive),> 100 µM (inactive),> 100 µM (inactive),24.5 µM (inactive),> 100 µM (inactive),> 100 µM (inactive),29.5 µM (inactive),35.8 µM (inactive),87.3 µM (inactive),> 100 µM (inactive),> 100 µM (inactive),
CC(=O)O[C@H]1C(=O)[C@@]2(C)[C@H]([C@H](OC(=O)c3ccccc3)[C@]3(O)C[C@H](OC(=O)[C@H](O)[C@@H](NC(=O)c4ccccc4)C4CCCCC4)C(C)=C1C3(C)C)[C@]1(OC(C)=O)CO[C@@H]1C[C@@H]2O,< 0.01 µM (active),0.288 µM (active),,< 0.0174 µM (active),17.3 µM (inactive),< 0.01 µM (active),< 0.01 µM (active),0.313 µM (active),0.0227 µM (active),< 0.01 µM (active),23.6 µM (inactive),< 0.01 µM (active),< 0.01 µM (active),< 0.01 µM (active),< 0.01 µM (active),< 0.01 µM (active),< 0.01 µM (active),< 0.01 µM (active),< 0.01 µM (active),< 0.01 µM (active)
COc1ccc(C2c3cc4c(cc3OC(NNS(=O)(=O)c3ccc(C)cc3)C2C)OCO4)cc1 (centres undefined),45.9 µM (inactive),74 µM (inactive),52.6 µM (inactive),21.1 µM (inactive),59.7 µM (inactive),> 100 µM (inactive),> 100 µM (inactive),31.2 µM (inactive),,79.8 µM (inactive),> 100 µM (inactive),50.1 µM (inactive),> 100 µM (inactive),99.8 µM (inactive),21.9 µM (inactive),> 100 µM (inactive),> 100 µM (inactive),65.9 µM (inactive),54.2 µM (inactive),13.1 µM (inactive)
Cc1nc2c(N3CCCC3)nc(N3CCNCC3)nc2nc1NCc1ccccc1,1.62 µM (inactive),5.12 µM (inactive),1.94 µM (inactive),2.33 µM (inactive),4.98 µM (inactive),7.69 µM (inactive),13 µM (inactive),2.41 µM (inactive),7.73 µM (inactive),1.65 µM (inactive),2.04 µM (inactive),4.9 µM (inactive),1.53 µM (inactive),8.85 µM (inactive),2.04 µM (inactive),13.1 µM (inactive),1.94 µM (inactive),2.84 µM (inactive),1.73 µM (inactive),2.52 µM (inactive)
COc1ccc(CN2C(=O)CCC/C=C\[C@H]2CI)cc1,11.7 µM (inactive),14.3 µM (inactive),10.1 µM (inactive),12.8 µM (inactive),11 µM (inactive),16 µM (inactive),12.1 µM (inactive),11.6 µM (inactive),10.9 µM (inactive),17.6 µM (inactive),11.1 µM (inactive),14 µM (inactive),11.6 µM (inactive),15.1 µM (inactive),13.5 µM (inactive),12.9 µM (inactive),10.7 µM (inactive),11 µM (inactive),0.286 µM (active),10.1 µM (inactive)
NCC(=O)Nc1ccc(Cl)cc1C(=O)c1ccc[nH]1,7.64 µM (inactive),> 74 µM (inactive),> 100 µM (inactive),15.4 µM (inactive),61.1 µM (inactive),> 100 µM (inactive),55.6 µM (inactive),21.7 µM (inactive),21.7 µM (inactive),9.95 µM (inactive),> 56.4 µM (inactive),> 83.4 µM (inactive),31.8 µM (inactive),14.3 µM (inactive),> 100 µM (inactive),46.3 µM (inactive),99.3 µM (inactive),34 µM (inactive),54.1 µM (inactive),35.8 µM (inactive)
O=C1c2ccccc2C(=O)c2c(/C=C\N3CCCCC3)ccnc21,1.06 µM (active),5.69 µM (inactive),1.02 µM (active),9.18 µM (inactive),3.72 µM (inactive),15.7 µM (inactive),5.38 µM (inactive),2.01 µM (inactive),9.57 µM (inactive),0.337 µM (active),0.661 µM (active),6.35 µM (inactive),2.72 µM (inactive),0.644 µM (active),2.47 µM (inactive),2.7 µM (inactive),0.578 µM (active),3.97 µM (inactive),2.97 µM (inactive),6.84 µM (inactive)
CC(=O)OCc1ccc(O)c(C=O)c1,40.4 µM (inactive),> 100 µM (inactive),> 100 µM (inactive),43.3 µM (inactive),> 100 µM (inactive),> 100 µM (inactive),> 100 µM (inactive),56.8 µM (inactive),> 100 µM (inactive),> 100 µM (inactive),> 100 µM (inactive),> 100 µM (inactive),> 100 µM (inactive),> 100 µM (inactive),> 100 µM (inactive),> 100 µM (inactive),25.2 µM (inactive),> 100 µM (inactive),51.3 µM (inactive),38.3 µM (inactive)
Cc1sc2[nH]c(=O)oc(=O)c2c1C,> 100 µM (inactive),97.7 µM (inactive),> 100 µM (inactive),> 100 µM (inactive),37.7 µM (inactive),> 100 µM (inactive),> 100 µM (inactive),33 µM (inactive),67.6 µM (inactive),44.6 µM (inactive),> 72.1 µM (inactive),70.3 µM (inactive),> 88.5 µM (inactive),> 100 µM (inactive),> 77.8 µM (inactive),> 74.5 µM (inactive),> 61.9 µM (inactive),34.9 µM (inactive),> 86.5 µM (inactive),48.5 µM (inactive)
C=C(OC1C(C)=C2C(C1OC(=O)CCCCCCC)C(C)(OC(C)=O)CC(OC(=O)CCC)C1(O)C2OC(=O)C1(C)O)/C(C)=C/C (centres undefined),,0.000585 µM (active),0.0125 µM (active),0.0125 µM (active),0.0125 µM (active),0.34 µM (active),0.034 µM (active),0.115 µM (active),0.0125 µM (active),0.0125 µM (active),0.0125 µM (active),< 0.0001 µM (active),0.0125 µM (active),0.0125 µM (active),0.0125 µM (active),0.0641 µM (active),< 0.0001 µM (active),0.0125 µM (active),0.000135 µM (active),0.0125 µM (active)
COC(=O)c1c(O)ccc2c1c1c(n2Cc2ccc(Cl)cc2Cl)C(=O)c2ccccc2C1=O,3.91 µM (inactive),7.85 µM (inactive),15.2 µM (inactive),12.2 µM (inactive),14.2 µM (inactive),14.3 µM (inactive),19.5 µM (inactive),10.5 µM (inactive),1.95 µM (inactive),12.7 µM (inactive),16 µM (inactive),10.1 µM (inactive),3.48 µM (inactive),10.5 µM (inactive),11.8 µM (inactive),10.9 µM (inactive),14.1 µM (inactive),3.41 µM (inactive),1.97 µM (inactive),2.27 µM (inactive)
CCOC(=O)Cn1nnc2ccc(Nc3nc4ccccc4nc3C(=O)OCC)cc21,> 100 µM (inactive),> 100 µM (inactive),> 100 µM (inactive),56.2 µM (inactive),> 100 µM (inactive),59 µM (inactive),> 100 µM (inactive),30.1 µM (inactive),> 100 µM (inactive),> 100 µM (inactive),> 100 µM (inactive),89.3 µM (inactive),87.3 µM (inactive),45.9 µM (inactive),34.7 µM (inactive),> 100 µM (inactive),> 100 µM (inactive),> 100 µM (inactive),> 100 µM (inactive),> 100 µM (inactive)
N#Cc1c(N2CCCC2)ncn(Cc2ccccc2)c1=O,> 100 µM (inactive),> 100 µM (inactive),> 100 µM (inactive),> 100 µM (inactive),> 100 µM (inactive),> 100 µM (inactive),> 100 µM (inactive),> 100 µM (inactive),> 100 µM (inactive),> 100 µM (inactive),> 100 µM (inactive),> 100 µM (inactive),> 100 µM (inactive),,> 100 µM (inactive),> 100 µM (inactive),> 100 µM (inactive),> 100 µM (inactive),> 100 µM (inactive),> 100 µM (inactive)
O=[N+]([O-])/C(Cl)=C(/C(Cl)=C(Cl)Cl)N1CCCCC1,6.18 µM (inactive),16.1 µM (inactive),,16.1 µM (inactive),25.2 µM (inactive),28.5 µM (inactive),14.9 µM (inactive),8.15 µM (inactive),13.8 µM (inactive),7.33 µM (inactive),2.7 µM (inactive),11.3 µM (inactive),15.9 µM (inactive),8.49 µM (inactive),23.7 µM (inactive),13.9 µM (inactive),11.2 µM (inactive),14.5 µM (inactive),11.8 µM (inactive),3.27 µM (inactive)
